Source: patent publication US20100035871A1, “BENZOXAZINE DERIVATIVES AND USES THEREOF” (priority 2006, published 2010)
pEC50, pKd, pKi: −log10 of the molar value. Like-named read-outs stand apart in the source and are kept apart here.

What was measured:
human 5-HT2C receptor [1] = target: T1, human 5-HT2C receptor (Homo sapiens, UniProt P28335); assay: 5-HT2C receptor binding, [125I]DOI displacement, membranes of transfected CHO cells
T1 construct: expressed in transfected cells; host or cells: CHO (Chinese Hamster Ovary) cells; membrane preparation
T1 sequence (P28335 33-458): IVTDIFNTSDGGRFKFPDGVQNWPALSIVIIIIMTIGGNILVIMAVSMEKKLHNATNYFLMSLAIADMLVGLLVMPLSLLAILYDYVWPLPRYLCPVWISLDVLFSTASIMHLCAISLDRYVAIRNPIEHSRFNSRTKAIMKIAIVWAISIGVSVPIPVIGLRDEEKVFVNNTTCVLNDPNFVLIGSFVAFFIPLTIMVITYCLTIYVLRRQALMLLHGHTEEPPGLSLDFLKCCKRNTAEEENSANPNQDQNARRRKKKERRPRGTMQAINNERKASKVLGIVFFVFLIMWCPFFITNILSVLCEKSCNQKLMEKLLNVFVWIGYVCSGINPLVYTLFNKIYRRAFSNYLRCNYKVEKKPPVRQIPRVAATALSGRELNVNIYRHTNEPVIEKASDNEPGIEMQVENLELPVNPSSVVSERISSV

human 5-HT2C receptor [2] = target: T1, human 5-HT2C receptor; assay: 5-HT2C receptor-stimulated calcium mobilization (FLIPR) in CHO cells; format: cell-based; conditions: for Emax: CHO, read-out: 5-HT2C Function EMax (%); for pEC50: calcium mobilization, CHO cells, read-out: 5-HT2C Function EC50
[3] = read-out: 5-HT2C Binding Ki avg

COc1ccccc1-c1cccc2c1OC(CN)CN2C (racemic) [Example 1, 1-[8-(2-Methoxyphenyl)-4-methyl-3,4-dihydro-2H-1,4-benzoxazin-2-yl]methanamine]
pKi (human 5-HT2C receptor [1]; [3]): 7.33 | Emax (human 5-HT2C receptor [2]): 60% | pEC50 (human 5-HT2C receptor [2]): 7.31

Cc1cc(Cl)ccc1-c1cccc2c1OC(CN)CN2C (racemic) [Example 2, 1-[8-(4-Chloro-2-methylphenyl)-4-methyl-3,4-dihydro-2H-1,4-benzoxazin-2-yl]methanamine]
pKi (human 5-HT2C receptor [1]; [3]): 7.83 | Emax (human 5-HT2C receptor [2]): 70% | pEC50 (human 5-HT2C receptor [2]): 6.55

CN1CC(CN)Oc2c(-c3ccc(Cl)cc3Cl)cccc21 (racemic) [Example 3, 1-[8-(2,4-Dichlorophenyl)-4-methyl-3,4-dihydro-2H-1,4-benzoxazin-2-yl]methanamine]
pKi (human 5-HT2C receptor [1]; [3]): 7.88 | Emax (human 5-HT2C receptor [2]): 70% | pEC50 (human 5-HT2C receptor [2]): 6.91

CN1CC(CN)Oc2c(-c3ccccc3C(F)(F)F)cccc21 (racemic) [Example 4, 1-{4-Methyl-8-[2-(trifluoromethyl)phenyl]-3,4-dihydro-2H-1,4-benzoxazin-2-yl}methanamine]
pKi (human 5-HT2C receptor [1]; [3]): 8.07 | Emax (human 5-HT2C receptor [2]): 70% | pEC50 (human 5-HT2C receptor [2]): 7.21

COc1ccc(-c2cccc3c2OC(CN)CN3C)c(C)c1 (racemic) [Example 5, 1-[8-(4-Methoxy-2-methylphenyl)-4-methyl-3,4-dihydro-2H-1,4-benzoxazin-2-yl]methanamine]
pKi (human 5-HT2C receptor [1]; [3]): 7.98 | Emax (human 5-HT2C receptor [2]): 80% | pEC50 (human 5-HT2C receptor [2]): 7.70

COc1ccc(-c2cccc3c2OC(CN)CN3C)cc1 (racemic) [Example 6, 1-[8-(4-Methoxyphenyl)-4-methyl-3,4-dihydro-2H-1,4-benzoxazin-2-yl]methanamine]
pKi (human 5-HT2C receptor [1]; [3]): 7.92 | Emax (human 5-HT2C receptor [2]): 80% | pEC50 (human 5-HT2C receptor [2]): 7.15

NCC1COc2cc(Cl)cc(-c3ccccc3F)c2N1 (racemic) [Example 33, 1-[7-chloro-5-(2-fluorophenyl)-3,4-dihydro-2H-1,4-benzoxazin-3-yl]methanamine]
pKi (human 5-HT2C receptor [1]; [3]): 6.82

COc1ccccc1-c1cc(Cl)cc2c1NC(CN)CO2 (racemic) [Example 34, 1-[7-chloro-5-(2-methoxyphenyl)-3,4-dihydro-2H-1,4-benzoxazin-3-yl]methanamine]
pKi (human 5-HT2C receptor [1]; [3]): 6.13

Cc1cc(Cl)ccc1-c1cc(Cl)cc2c1NC(CN)CO2 (racemic) [Example 35, 1-[7-chloro-5-(4-chloro-2-methylphenyl)-3,4-dihydro-2H-1,4-benzoxazin-3-yl]methanamine]
pKi (human 5-HT2C receptor [1]; [3]): 6.76

NCC1COc2cc(Cl)cc(-c3ccc(Cl)cc3C(F)(F)F)c2N1 (racemic) [Example 37, 1-{7-chloro-5-[4-chloro-2-(trifluoromethyl)phenyl]-3,4-dihydro-2H-1,4-benzoxazin-3-yl}methanamine]
pKi (human 5-HT2C receptor [1]; [3]): 6.78

NCC1COc2cc(Cl)cc(-c3ccc(C(F)(F)F)cc3C(F)(F)F)c2N1 (racemic) [Example 38, 1-{5-[2,4-bis(trifluoromethyl)phenyl]-7-chloro-3,4-dihydro-2H-1,4-benzoxazin-3-yl}methanamine]
pKi (human 5-HT2C receptor [1]; [3]): 6.54

COc1ccc(-c2cc(F)cc3c2NC(CN)CO3)c(C)c1 (racemic) [Example 56, 1-[7-fluoro-5-(4-methoxy-2-methylphenyl)-3,4-dihydro-2H-1,4-benzoxazin-3-yl]methanamine]
pKi (human 5-HT2C receptor [1]; [3]): 6.80

NCC1COc2cc(F)cc(-c3ccccc3Cl)c2N1 (racemic) [Example 57, 1-[5-(2-chlorophenyl)-7-fluoro-3,4-dihydro-2H-1,4-benzoxazin-3-yl]methanamine]
pKi (human 5-HT2C receptor [1]; [3]): 6.81

Cc1ccccc1-c1cc(F)cc2c1NC(CN)CO2 (racemic) [Example 58, 1-[7-fluoro-5-(2-methylphenyl)-3,4-dihydro-2H-1,4-benzoxazin-3-yl]methanamine]
pKi (human 5-HT2C receptor [1]; [3]): 6.81

Cc1ccc(-c2cc(F)cc3c2NC(CN)CO3)c(C(F)(F)F)c1 (racemic) [Example 60, 1-{7-fluoro-5-[4-methyl-2-(trifluoromethyl)phenyl]-3,4-dihydro-2H-1,4-benzoxazin-3-yl}methanamine]
pKi (human 5-HT2C receptor [1]; [3]): 7.19

COc1ccc(-c2cc(F)cc3c2NC(CN)CO3)cc1 (racemic) [Example 61, 1-[7-fluoro-5-(4-methoxyphenyl)-3,4-dihydro-2H-1,4-benzoxazin-3-yl]methanamine]
pKi (human 5-HT2C receptor [1]; [3]): 6.42

NCC1COc2cc(F)cc(-c3ccccc3F)c2N1 (racemic) [Example 62, 1-[7-fluoro-5-(2-fluorophenyl)-3,4-dihydro-2H-1,4-benzoxazin-3-yl]methanamine]
pKi (human 5-HT2C receptor [1]; [3]): 6.10

Cc1cc(Cl)ccc1-c1cc(F)cc2c1NC(CN)CO2 (racemic) [Example 63, 1-[5-(4-chloro-2-methylphenyl)-7-fluoro-3,4-dihydro-2H-1,4-benzoxazin-3-yl]methanamine]
pKi (human 5-HT2C receptor [1]; [3]): 6.64

COc1ccccc1-c1cc(F)cc2c1NC(CN)CO2 (racemic) [Example 64, 1-[7-fluoro-5-(2-methoxyphenyl)-3,4-dihydro-2H-1,4-benzoxazin-3-yl]methanamine]
pKi (human 5-HT2C receptor [1]; [3]): 6.54

NCC1COc2cc(F)cc(-c3cccc(Cl)c3)c2N1 (racemic) [Example 65, 1-[5-(3-chlorophenyl)-7-fluoro-3,4-dihydro-2H-1,4-benzoxazin-3-yl]methanamine]
pKi (human 5-HT2C receptor [1]; [3]): 6.30

CN1CC(CN)Oc2c(-c3cccc(Cl)c3)cccc21 (racemic) [Example 66, 1-[8-(3-chlorophenyl)-4-methyl-3,4-dihydro-2H-1,4-benzoxazin-2-yl]methanamine]
pKi (human 5-HT2C receptor [1]; [3]): 6.59

Cc1cc(Cl)ccc1-c1cccc2c1O[C@H](CN)CN2 [Example 42, 1-[(2R)-8-(4-chloro-2-methylphenyl)-3,4-dihydro-2H-1,4-benzoxazin-2-yl]methanamine]
pKi (human 5-HT2C receptor [1]; [3]): 6.28

NC[C@@H]1CNc2cccc(-c3ccccc3F)c2O1 [Example 43, 1-[(2R)-8-(2-fluorophenyl)-3,4-dihydro-2H-1,4-benzoxazin-2-yl]methanamine]
pKi (human 5-HT2C receptor [1]; [3]): 7.01

COc1ccc(-c2cccc3c2O[C@H](CN)CN3)c(C)c1 [Example 44, 1-[(2R)-8-(4-methoxy-2-methylphenyl)-3,4-dihydro-2H-1,4-benzoxazin-2-yl]methanamine]
pKi (human 5-HT2C receptor [1]; [3]): 6.84

COc1ccc(-c2cccc3c2O[C@H](CN)CN3)cc1 [Example 45, 1-[(2R)-8-(4-methoxyphenyl)-3,4-dihydro-2H-1,4-benzoxazin-2-yl]methanamine]
5-HT2C Binding, % @1 μM (human 5-HT2C receptor [1]; @1 μM): 18% @1 μM

COc1ccc(-c2cccc3c2O[C@H](CN)CN3)c(Cl)c1 [Example 46, 1-[(2R)-8-(2-chloro-4-methoxyphenyl)-3,4-dihydro-2H-1,4-benzoxazin-2-yl]methanamine]
pKi (human 5-HT2C receptor [1]; [3]): 6.88

Cc1cc(Cl)ccc1-c1cccc2c1O[C@@H](CN)CN2 [Example 48, 1-[(2S)-8-(4-chloro-2-methylphenyl)-3,4-dihydro-2H-1,4-benzoxazin-2-yl]methanamine]
pKi (human 5-HT2C receptor [1]; [3]): 7.00

NC[C@H]1CNc2cccc(-c3ccccc3F)c2O1 [Example 49, 1-[(2S)-8-(2-fluorophenyl)-3,4-dihydro-2H-1,4-benzoxazin-2-yl]methanamine]
pKi (human 5-HT2C receptor [1]; [3]): 6.84

COc1ccc(-c2cccc3c2O[C@@H](CN)CN3)cc1 [Example 51, 1-[(2S)-8-(4-methoxyphenyl)-3,4-dihydro-2H-1,4-benzoxazin-2-yl]methanamine]
pKi (human 5-HT2C receptor [1]; [3]): 6.87

CSc1ccc2c(c1)C(N1CCN(C)CC1)Cc1ccccc1S2 (stereo not shown) [Methiothepin, reference compound]
pKi (human 5-HT2C receptor [1]; reference compounds, value (95% confidence interval), [125I]DOI binding, read-out: Ki): 8.34

COc1cc(CC(C)N)c(OC)cc1I (stereo not shown) [[^125I] DOI, reference compound]
pKd (human 5-HT2C receptor [1]; saturation binding with increasing concentrations of [125I] DOI, read-out: dissociation constant, KD): 9.40
